The subject of this assay is Herpes Simplex Virus (HSV-2). The assay is classed as cell-based. The settings on record: 29 h. Here is the method: BHK-21/C13 cells (ATCC CCL 10) are incubated for two days in 150 cm^2 T-flasks (1.5 x 10^6 cells/flask) with alpha-MEM medium (Gibco Canada Inc., Burlington, Ontario, Canada) supplemented with 8% (v/v) fetal bovine serum (FBS, Gibco Canada Inc.). The cells are trypsinized and then transferred to fresh media in a 24 well plate to give 2.5 x 10^5 cells in 750 µL of media per well. The cells are incubated at 37° for a period of 6 h to allow them to adhere to the plate. Thereafter, the cells are washed once with 500 µL of alpha-MEM supplemented with 0.5% (v/v) FBS and then incubated with 750 µL of the same media (low serum) for 3 days. After this period of serum starvation, the low serum medium is removed and the cells are incubated in 500 µL of BBMT for 2 to 3 hours. {BBMT medium is described by P. Brazeau et al., Proc. Natl. Acad. Sci. USA, 79, 7909 (1982).} Thereafter, the cells are infected with HSV-2 (multiplicity of infection = 0.02 PFU/cell) in 100 µL of BBMT medium. (Note: The HSV-2 used was strain HG-52, see Y. Langelier and G. Buttin, J. Gen. Virol., 57, 21 (1981); the virus was stored at -80°.) Following 1 h of virus adsorption at 37°, the media is removed and the cells are washed with BBMT (3 X 250 µL). The cells in each well are incubated with or without (control) appropriate concentrations of the test agent dissolved in 200 µL of BBMT medium. After 29 h of incubation at 37°, the infected cells are harvested by first freezing the plate at -80°, followed by thawing. The cells in each well are scraped off the surface of the well with the help of the melting ice fragments. After complete thawing, the cell suspensions are collected and each well is rinsed with 150 µL of BBMT medium. The viral sample (suspension plus washing) is sonicated gently for 4 min at 4°. Cell debris are removed by centrifugation (1000 times gravity for 10 minutes at 4°). The supernatant is collected and stored at -80° until determination of viral titer.
Viral titration was performed by a modification of the colorimetric assay method of M. Langlois et al., Journal of Biological Standardization, 14, 201 (1986).
More specifically, in a similar manner as described above, BHK-21/C13 cells are trypsinized and transferred to fresh media in a 96 well microtiter plate to give 20,000 cells in 100 µL of media per well. The cells in the prepared plate are incubated at 37° for, 2 h. During that time, the viral sample is thawed and sonicated gently for 15 seconds, and log dilutions of the sample are prepared (1/5 sequential: 50 µL of the sample plus 200 µL of BBMT medium, sequential dilutions being done with a multichannel pipette.
On completion of the above 2 hour incubation of the BHK-21/C13 cells, the media is replaced with alpha-MEM medium supplemented with 3% (v/v) FBS. The cells are now ready to be infected with the various sample dilutions of virus. Aliquots (50 µL) of the various dilutions are transferred into the appropriate wells of the plate. The resulting infected cells are incubated for 2 days at 37°. Then 50 µL of a 0.15% (v/v) solution of neutral red dye in Hank's Balanced Salt Solution (pH 7.3, Gibco Canada Inc.) is added to each well. The prepared plate is incubated for 45 min at 37°. Medium from each well is then aspirated and the cells are washed once with 200 µL of Hank's Balanced Salt Solution. After the wash, the dye is released from the cells by the addition of 100 µL of a 1:1 mixture of 0.1 M Sorensen's citrate buffer (pH 4.2) and ethanol. {Sorensen's citrate buffer is prepared as follows: Firstly, a 0.1 M disodium citrate solution is prepared by dissolving citric acid monohydrate (21 g) in 1 N aqueous NaOH (200 mL) and adding sufficient filtered H2O to make 1 L. Secondly, the 0.1 M disodium citrate solution (61.2 mL) is mixed with 0.1 N aqueous HCl (38.8 mL) and the pH of the resulting solution is adjusted to 4.2 if necessary.} The mixture in the wells is subjected to a gentle vortex action to ensure proper mixing.

*1 amine or outer side, *2 acyl side, *3 side chain or, on linkers, in order; H or OH if unused. Where a SMILES comes first, the peptide text is derived from it. [ ]: non-standard residue; d: D form. The star is where a group is joined. Asp(3,3-(CH2)4) = N[C@H](C(=O)O)C1(C(=O)O)CCCC1; tBuAla = CC(C)(C)C[C@H](N)C(=O)O; Tle = CC(C)(C)[C@H](N)C(=O)O; Pyrrolidide = C1CCN(*)C1; CO = O=C([*:1])[*:2]; X3 = CCCC(C)(C)N*

As for `CCCC(CCC)NC(=O)N[C@H](C(=O)N[C@@H](CC(=O)C1CCC1)C(=O)N[C@H](C(=O)NCC(C)(C)C)C1(C(=O)O)CCCC1)C(C)(C)C` [Pr2CHNHC(O)-Tbg-NH-(S)-CH(2-cyclobutyl-2-oxoethyl)C(O)-Asp(cyPn)-NHCH2CMe3], the response was half-maximal at 160 µM (EC50).

In the case of `CCCC(CCC)NC(=O)N[C@H](C(=O)N[C@@H](CC(=O)C1CCCCC1)C(=O)N[C@H](C(=O)NCC(C)(C)C)C1(C(=O)O)CCCC1)C(C)(C)C` [Pr2CHNHC(O)-Tbg-NHCH(2-cyclohexyl-2-oxoethyl)C(O)-Asp(cyPn)-NHCH2CMe3], a half-maximal response (EC50) required 140 µM.

Turning to `CCCC(CCC)NC(=O)N[C@H](C(=O)N[C@@H](CC(=O)C1CCCC1)C(=O)N[C@H](C(=O)NCC(C)(C)C)C1(C(=O)O)CCCC1)C(C)(C)C` [Pr2CHNHC(O)-Tbg-NHCH(2-cyclopentyl-2-oxoethyl)C(O)-Asp(cyPn)-NHCH2CMe3], it took 90 µM to reach a half-maximal effect (EC50).

As to `CCCC(CCC)NC(=O)N[C@H](C(=O)N[C@@H](CC(=O)C(CC)CC)C(=O)N[C@H](C(=O)NCC(C)(C)C)C1(C(=O)O)CCCC1)C(C)(C)C` [Pr2CHNHC(O)-Tbg-NHCH(3-ethyl-2-oxopentyl)CO-Asp(cyPn)-NHCH2CMe3], the concentration for a half-maximal effect (EC50) (in general, the concentration at which the effect is half-maximal) stood at 25 µM.

`CCCC(C)(C)NC(=O)N[C@H](C(=O)N[C@@H](CC(=O)N1CCCC1)C(=O)N[C@H](C(=O)N[C@@H](CC(C)(C)C)C(=O)O)C1(C(=O)O)CCCC1)C(C)(C)C` [PrMe2CNHC(O)-Tbg-Asp(pyrrolidino)-Asp(cyPn)-γMeLeu-OH] ({X3-CO}-[Tle]D(Pyrrolidide)[Asp(3,3-(CH2)4)][tBuAla]-OH) gave a half-maximal effective concentration (EC50) of 110 µM.

For the compound `CCCC(CCC)NC(=O)N[C@H](C(=O)N[C@@H](CC(=O)N1CCCC1)C(=O)N[C@H](C(=O)N[C@H](CO)CC(C)(C)C)C1(C(=O)O)CCCC1)C(C)(C)C` [Title Compound of Example 8, Pr2CHNHC(O)-Tbg-Asp(pyrrolidino)-Asp(cyPn)-γMeLeucinol], the 50% effective concentration (EC50) is 75 µM.

Source of the values: EP0560274B1, “Antiherpes peptide derivatives having a ureido N-terminus” (priority 1992, dated 1993).
